In ChEMBL document CHEMBL4011609, “Discovery of novel BRD4 inhibitors by high-throughput screening, crystallography, and cell-based assays” (Bioorg Med Chem Lett, 2017):

Assays:
[1] = biological target: T1, Bromodomain-containing protein 4 (Homo sapiens, UniProt O60885); test: Inhibition of human BRD4-BD1 (49 to 170 residues) expressed in Escherichia coli BL21(DE3) using N-C:SGRG-K(Ac)-GG-K(Ac)-GLG-K(Ac)-GGA-K(Ac)-RHRKVGG-K(biotin) as substrate preincubated for 15 mins followed by substrate addition measured after 5 mins by AlphaScreen assay
[2] = biological target: T1, Bromodomain-containing protein 4; test: Inhibition of human BRD4-BD1 (49 to 170 residues) expressed in Escherichia coli BL21(DE3) using N-C:SGRG-K(Ac)-GG-K(Ac)-GLG-K(Ac)-GGA-K(Ac)-RHRKVGG-K(biotin) as substrate preincubated for 15 mins followed by substrate addition measured after 5 mins by AlphaScreen assay relative to control; set-up: concentration or dose not given beside the values

SMILES: COc1ccccc1NC(=O)CCSc1cccc2cccnc12
- IC50 [1]: 18.7 µM

SMILES: Cc1ccn(-c2ccc(NCCNC(=O)c3ccc(Br)o3)nn2)n1
- IC50 [1]: 21.3 µM

SMILES: CC(=O)CC(c1ccccc1)c1c(O)c2ncccc2oc1=O (configuration not stated)
- IC50 [1]: 2.83 µM

SMILES: CN(CCCNc1cc(=O)oc2ccccc12)S(=O)(=O)c1ccccc1
- inhibition [2]: 28.6%

SMILES: CCCn1nnc(NC(=O)COc2ccc(Cl)cc2C)n1
- IC50 [1]: 23.1 µM

SMILES: O=c1[nH]n(CC2COC3(CCCCC3)O2)c(=O)c2ccccc12 (configuration not stated)
- IC50 [1]: 13.3 µM

SMILES: CCCNS(=O)(=O)c1ccc2c3c(cccc13)C(=O)N2C
- IC50 [1]: 9.57 µM

SMILES: COc1ccc(/C=C(\NC(=O)c2ccc(C)cc2)C(=O)NCCCn2ccnc2)cc1
- IC50 [1]: 11 µM

SMILES: O=c1cc(NC2CCN(CCCc3ccccc3)CC2)c2ccc(Cl)cc2o1
- inhibition [2]: 22.1%

SMILES: O=C(NCc1n[nH]c(=O)c2ccccc12)c1cccc(Cl)c1
- IC50 [1]: 47.3 µM

SMILES: CCCNS(=O)(=O)c1ccc2c3c(cccc13)C(=O)N2CC
- IC50 [1]: 2.64 µM

SMILES: O=C(NCCNc1cc(=O)oc2ccccc12)c1ccco1
- inhibition [2]: 43.6%

SMILES: N#Cc1c(-c2ccc(Cl)cc2)cc(-c2cccs2)nc1SCC(=O)NCC(=O)O
- IC50 [1]: 0.89 µM

SMILES: CN(C)CCCNCCCNc1cc(=O)oc2ccccc12
- inhibition [2]: 37.2%

SMILES: O=C(NCCNc1cc(=O)oc2ccccc12)c1ccc2ccccc2n1
- inhibition [2]: 12.8%

SMILES: CCOC(=O)c1ncccc1NC(=O)CC(=O)Nc1cccnc1C(=O)OCC
- IC50 [1]: 2.87 µM

SMILES: COc1ccc(C2=NN(C(=O)CCCC(=O)O)C(c3cn(-c4ccccc4)nc3-c3ccccc3)C2)cc1 (configuration not stated)
- IC50 [1]: 5.36 µM

SMILES: COc1ccc(C(=O)N(C)CCCNc2cc(=O)oc3ccccc23)cc1
- inhibition [2]: 48.9%

SMILES: Cc1ccc(-[n+]2c3ccccc3nc3ccc(N4CCOCC4)cc32)cc1
- IC50 [1]: 10.9 µM

SMILES: O=C(Nc1ccc(Cl)cn1)c1c(F)c(F)c(F)c(F)c1F
- IC50 [1]: 32.2 µM

SMILES: O=c1cc(NCCCn2ccnc2)c2ccccc2o1
- inhibition [2]: 58.5%

SMILES: O=C(NCCNc1cc(=O)oc2ccccc12)c1cccs1
- inhibition [2]: 72%

SMILES: CCN1C(=O)c2cccc3c(S(=O)(=O)Nc4ccccc4C)ccc1c23
- IC50 [1]: 9.68 µM

SMILES: O=C(c1ccccc1)c1ccc(NS(=O)(=O)c2cccc(Br)c2)cc1
- IC50 [1]: 39 µM

SMILES: O=C(NCCNc1ccc(-n2cccn2)nn1)c1ccccc1Cl
- IC50 [1]: 11.2 µM

SMILES: CCc1nnc(NC(=O)C2(C)COC(c3ccccc3)OC2)s1 (configuration not stated)
- IC50 [1]: 69.2 µM

SMILES: O=c1oc2ccccc2c2ncn(CCCN3CCOCC3)c12
- inhibition [2]: 40.7%

SMILES: Cc1ccc(C)c(NC(=O)CC(c2ccccc2)c2ccccc2)c1
- IC50 [1]: 50.7 µM

SMILES: O=c1oc2ccccc2c(NCCCN2CCOCC2)c1[N+](=O)[O-]
- inhibition [2]: 42.8%

SMILES: CN(CCCNC(=O)c1nc2ccccc2c(=O)[nH]1)C(=O)c1cccs1
- inhibition [2]: 56.5%

SMILES: CCN1C(=O)c2cccc3c(S(=O)(=O)N4CCCC4)ccc1c23
- IC50 [1]: 1.91 µM

SMILES: O=C(NCCCNc1cc(=O)oc2ccccc12)c1cccnc1
- inhibition [2]: 30.2%

SMILES: O=C(Nc1cccc(S(=O)(=O)N2CCCC2)c1)c1nc[nH]n1
- IC50 [1]: 42.2 µM

SMILES: CC(=O)C(C(C)=O)C(c1ccc(Cl)cc1)c1ccc(Cl)cc1
- IC50 [1]: 27.5 µM

SMILES: Cc1[nH]n(-c2nc(O)c(Cc3ccccc3)c(=O)[nH]2)c(=O)c1CCO
- IC50 [1]: 3.09 µM

SMILES: c1coc(-c2nnc(-c3ccc4ccccc4c3)c3nocc23)c1
- IC50 [1]: 13.3 µM

SMILES: O=c1oc2ccccc2c(NC2CCN(Cc3ccccc3)CC2)c1[N+](=O)[O-]
- inhibition [2]: 58.5%

SMILES: O=C(CN1CC(=O)Oc2ccccc21)OCC(=O)c1ccc(Br)cc1
- IC50 [1]: 1.11 µM

SMILES: O=c1cc(NCCCN2CCOCC2)c2ccccc2o1
- inhibition [2]: 59.9%

SMILES: CC(=O)N(C)c1ccc(NC(=O)COc2ccc(Br)cc2Cl)cc1
- IC50 [1]: 50.9 µM

SMILES: O=c1cc(NCCCN2CCN(Cc3ccccc3)CC2)c2ccccc2o1
- inhibition [2]: 52.3%

SMILES: COc1cccc2cc(C(=O)N(C)C)c(=O)oc12
- inhibition [2]: 38.5%

SMILES: CC1(C)CON(Cc2ccc(N3C(=O)c4cccnc4C3=O)cc2Cl)C1=O
- IC50 [1]: 12.7 µM

SMILES: O=C(NCCNc1ccc(-n2cccn2)nn1)c1ccccc1
- IC50 [1]: 13.8 µM

SMILES: CN1CCN(CCCNc2c(N)c(=O)oc3ccccc23)CC1
- inhibition [2]: 24.5%

SMILES: O=C(NCCCNC(=O)c1cccs1)c1nc2ccccc2c(=O)[nH]1
- inhibition [2]: 71.5%

SMILES: COC(=O)C(O)(c1cc(C)c2cccnc2c1O)C(F)(F)F (configuration not stated)
- IC50 [1]: 2.1 µM
